From patent US20090197897A1, “Novel Oxadiazole Derivatives and Their Use as Positive Allosteric Modulators of Metabotropic Glutamate Receptors” (Addex Pharma SA, priority 2005, published 2009)

How the values were obtained:
rat mGluR5 = target: T1, rat mGluR5 (Rattus norvegicus, UniProt P31424); experiment: mGluR5 assay on HEK-expressing rat mGluR5 (fluorescent cell based Ca2+ mobilization assay); settings: HEK-293 cells stably expressing rat mGluR5; no co-addition of glutamate; mean of at least three independent experiments in duplicate; read-out: Ca++ Flux (mean EC50)
T1 construct: expressed in transfected cells
Procedure: mGluR5 Assay on HEK-Expressing Rat mGluR5
Positive functional expression of HEK-293 cells stably expressing rat mGluR5 receptor was determined by measuring intracellular Ca^2+ changes using a Fluorometric Imaging Plate Reader (FLIPR, Molecular Devices, Sunnyvale, Calif.) in response to glutamate or selective known mGluR5 agonists and antagonists. Rat mGluR5 RT-PCR products in HEK-293 cells were sequenced and found 100% identical to rat mGluR5 Genbank reference sequence (NM_017012). HEK-293 cells expressing rmGluR5 were maintained in media containing DMEM, dialyzed Fetal Bovine Serum (10%), Glutamax™ (2 mM), Penicillin (100 units/ml), Streptomycin (100 μg/ml), Geneticin (100 μg/ml) and Hygromycin-B (40 μg/ml) at 37° C./5% CO2.
After one day of incubation, cells were washed with assay buffer containing: 142 mM NaCl, 6 mM KCl, 1 mM […], 1 mM CaCl2, 20 mM HEPES, 1 g/L glucose, 0.125 mM sulfinpyrazone, pH 7.4. After 60 min of loading with 4 uM Fluo-4 (TefLabs, Austin, Tex.), the cells were washed three times with 50 μl of PBS Buffer and resuspended in 45 μl of assay Buffer. The plates were then transferred to a Fluorometric Imaging Plate Reader (FLIPR, Molecular Devices, Sunnyvale, Calif.) for the assessment of intracellular calcium flux. After monitoring the baseline fluorescence for 10 seconds, increasing concentrations of representative compound (from 0.01 to 60 μM) of the present invention diluted in Assay Buffer (15 μl of 4× dilutions) was added to the cell. The final DMSO concentration in the assay was 0.3%. In each experiment, fluorescence was then monitored as a function of time for 3 minutes and the data analyzed using Microsoft Excel and GraphPad Prism. Each data point was also measured two times.
Under these experimental conditions, this HEK-rat mGluR5 cell line is able to directly detect positive allosteric modulators without the need of co-addition of glutamate or mGluR5 agonist.
The concentration-response curves of representative compounds of the present invention were generated using the Prism GraphPad software (Graph Pad Inc, San Diego, USA). The curves were fitted to a four-parameter logistic equation:
(Y=Bottom+(Top−Bottom)/(1+10̂((Log EC50−X)*Hill Slope)
allowing determination of EC50 values.
The Table 1 below represents the mean EC50 obtained from at least three independent experiments of selected molecules performed in duplicate.

T1 sequence (P31424 21-1171 isoform P31424-2 limits assumed): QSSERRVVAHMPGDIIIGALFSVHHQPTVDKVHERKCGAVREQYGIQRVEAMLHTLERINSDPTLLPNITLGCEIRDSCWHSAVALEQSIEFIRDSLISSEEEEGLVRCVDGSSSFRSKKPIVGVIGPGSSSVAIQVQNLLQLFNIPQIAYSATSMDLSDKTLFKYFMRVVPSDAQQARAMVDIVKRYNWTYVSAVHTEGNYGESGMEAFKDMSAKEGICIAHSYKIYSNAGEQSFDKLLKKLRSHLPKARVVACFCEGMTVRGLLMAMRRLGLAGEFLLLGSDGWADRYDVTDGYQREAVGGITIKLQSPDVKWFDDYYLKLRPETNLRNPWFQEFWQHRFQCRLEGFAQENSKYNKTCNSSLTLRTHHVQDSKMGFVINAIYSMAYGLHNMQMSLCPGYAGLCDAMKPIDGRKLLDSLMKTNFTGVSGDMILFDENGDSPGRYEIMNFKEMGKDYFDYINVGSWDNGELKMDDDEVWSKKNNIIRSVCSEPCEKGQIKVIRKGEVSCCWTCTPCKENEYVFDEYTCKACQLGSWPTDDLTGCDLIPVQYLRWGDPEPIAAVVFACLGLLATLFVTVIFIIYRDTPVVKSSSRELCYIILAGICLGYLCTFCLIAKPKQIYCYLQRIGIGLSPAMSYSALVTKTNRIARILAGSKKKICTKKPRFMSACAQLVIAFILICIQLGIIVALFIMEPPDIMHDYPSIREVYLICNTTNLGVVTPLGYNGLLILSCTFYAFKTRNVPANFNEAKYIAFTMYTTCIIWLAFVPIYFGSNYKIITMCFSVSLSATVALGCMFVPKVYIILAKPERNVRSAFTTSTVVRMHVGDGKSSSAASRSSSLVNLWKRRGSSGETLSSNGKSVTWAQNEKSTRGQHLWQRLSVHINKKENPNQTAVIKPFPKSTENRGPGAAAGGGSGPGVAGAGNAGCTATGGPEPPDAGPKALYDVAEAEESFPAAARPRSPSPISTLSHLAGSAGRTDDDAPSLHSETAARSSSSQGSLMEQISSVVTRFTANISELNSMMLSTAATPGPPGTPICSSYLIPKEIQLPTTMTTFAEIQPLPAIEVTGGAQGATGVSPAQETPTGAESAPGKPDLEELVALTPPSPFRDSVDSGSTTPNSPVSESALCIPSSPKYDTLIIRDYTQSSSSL

## O=C(c1ccc(F)cc1)N1CCC=C(c2nc(-c3ccc(F)cc3)no2)C1 [Example 1, (4-Fluoro-phenyl)-{5-[3-(4-fluoro-phenyl)-[1,2,4]oxadiazol-5-yl]-3,6-dihydro-2H-pyridin-1-yl}-methanone]
other
  melting point: 138 to 140 °C
Rat mGluR5
  EC50: 1000 to 10000 nM

## O=C(c1ccc(F)cc1)N1CCCC1Cc1nc(-c2ccc(F)cc2)no1 (centres unmarked) [Example 2, (4-Fluoro-phenyl)-{2-[3-(4-fluoro-phenyl)-[1,2,4]oxadiazol-5-ylmethyl]-pyrrolidin-1-yl}-methanone]
other
  melting point: 158 to 162 °C
Rat mGluR5
  EC50: 1000 to 10000 nM

## N#Cc1cc(C(=O)N2CCC[C@H](c3nc(-c4ccc(F)cc4)no3)C2)ccc1F [Example 3, 2-Fluoro-5-{(S)-3-[3-(4-fluoro-phenyl)-[1,2,4]oxadiazol-5-yl]-piperidine-1-carbonyl}-benzonitrile]
other
  melting point: 144 to 146 °C
Rat mGluR5
  EC50: 1000 to 10000 nM

## O=C(C1CCSCC1)N1CCC[C@H](c2nc(-c3ccc(F)cc3)no2)C1 [Example 7, {(S)-3-[3-(4-Fluoro-phenyl)-[1,2,4]oxadiazol-5-yl]-piperidin-1-yl}-(tetrahydro-thiopyran-4-yl)-methanone]
other
  melting point: 139 to 141 °C
Rat mGluR5
  EC50: 1000 to 10000 nM

## O=C(C1CCOCC1)N1CCC[C@H](c2nc(-c3ccc(F)cc3)no2)C1 [Example 9, {(S)-3-[3-(4-Fluoro-phenyl)-[1,2,4]oxadiazol-5-yl]-piperidin-1-yl}-(tetrahydro-pyran-4-yl)-methanone]
other
  melting point: 98 to 100 °C
Rat mGluR5
  EC50: 1000 to 10000 nM

## O=C(C1CCCCC1)N1CCC[C@H](c2nc(-c3ccc(F)cc3)no2)C1 [Example 10, Cyclohexyl-{(S)-3-[3-(4-fluoro-phenyl)-[1,2,4]oxadiazol-5-yl]-piperidin-1-yl}-methanone]
other
  melting point: 80 to 85 °C
Rat mGluR5
  EC50: 1000 to 10000 nM

## O=C(c1ccccc1)c1cccc(C(=O)N2CCC[C@H](c3nc(-c4ccc(F)cc4)no3)C2)c1 [Example 11, (3-Benzoyl-phenyl)-{(S)-3-[3-(4-fluoro-phenyl)-[1,2,4]oxadiazol-5-yl]-piperidin-1-yl}-methanone]
other
  melting point: 158 to 163 °C
Rat mGluR5
  EC50: 1000 to 10000 nM

## O=C(c1c(F)cc(F)cc1F)N1CCC[C@H](c2nc(-c3ccc(F)cc3)no2)C1 [Example 12, {(S)-3-[3-(4-Fluoro-phenyl)-[1,2,4]oxadiazol-5-yl]-piperidin-1-yl}-(2,4,6-trifluoro-phenyl)-methanone]
other
  melting point: 125 to 130 °C
Rat mGluR5
  EC50: 1000 to 10000 nM

## Cc1ncccc1C(=O)N1CCC[C@H](c2nc(-c3ccc(F)cc3)no2)C1 [Example 16, {(S)-3-[3-(4-Fluoro-phenyl)-[1,2,4]oxadiazol-5-yl]-piperidin-1-yl}-(2-methyl-pyridin-3-yl)-methanone]
other
  melting point: 115 to 116 °C
Rat mGluR5
  EC50: 1000 to 10000 nM

## Cc1cc(C(=O)N2CCC[C@H](c3nc(-c4ccc(F)cc4)no3)C2)c(C)n1C [Example 17, {(S)-3-[3-(4-Fluoro-phenyl)-[1,2,4]oxadiazol-5-yl]-piperidin-1-yl}-(1,2,5-trimethyl-1H-pyrrol-3-yl)-methanone]
other
  melting point: 122 to 126 °C
Rat mGluR5
  EC50: 1000 to 10000 nM

## Cc1cc(C(=O)N2CCC[C@H](c3nc(-c4ccc(F)cc4)no3)C2)c(C)o1 [Example 23, (2,5-Dimethyl-furan-3-yl)-{(S)-3-[3-(4-fluoro-phenyl)-[1,2,4]oxadiazol-5-yl]-piperidin-1-yl}-methanone]
other
  melting point: 114 to 118 °C
Rat mGluR5
  EC50: < 1000 nM

## O=C(c1cccc2c1OCCO2)N1CCC[C@H](c2nc(-c3ccc(F)cc3)no2)C1 [Example 25, (S)-(2,3-Dihydro-benzo[1,4]dioxin-5-yl)-{3-[3-(4-fluoro-phenyl)-[1,2,4]oxadiazol-5-yl]-piperidin-1-yl}-methanone]
other
  melting point: 57 to 60 °C
Rat mGluR5
  EC50: 1000 to 10000 nM

## COc1cc(C(=O)N2CCC[C@H](c3nc(-c4ccc(F)cc4)no3)C2)ccc1F [Example 26, (S)-(4-Fluoro-3-methoxy-phenyl)-{3-[3-(4-fluoro-phenyl)-[1,2,4]oxadiazol-5-yl]-piperidin-1-yl}-methanone]
other
  melting point: 109 to 111 °C
Rat mGluR5
  EC50: 1000 to 10000 nM

## Cc1cnccc1C(=O)N1CCC[C@H](c2nc(-c3ccc(F)cc3)no2)C1 [Example 27, (S)-{3-[3-(4-Fluoro-phenyl)-[1,2,4]oxadiazol-5-yl]-piperidin-1-yl}-(3-methyl-pyridin-4-yl)-methanone]
other
  melting point: 59 to 63 °C
Rat mGluR5
  EC50: 1000 to 10000 nM

## Cc1c[nH]cc1C(=O)N1CCC[C@H](c2nc(-c3ccc(F)cc3)no2)C1 [Example 43, {(S)-3-[3-(4-Fluoro-phenyl)-[1,2,4]oxadiazol-5-yl]-piperidin-1-yl}-(4-methyl-1H-pyrrol-3-yl)-methanone]
other
  melting point: 167.5 to 168.9 °C
Rat mGluR5
  EC50: 1000 to 10000 nM

## O=C(c1ccc(F)c(F)c1)N1CCC[C@H](c2nc(-c3ccsc3)no2)C1 [Example 45, (3,4-Difluoro-phenyl)-[(S)-3-(3-thiophen-3-yl-[1,2,4]oxadiazol-5-yl)-piperidin-1-yl]-methanone]
other
  melting point: 92 to 97 °C
Rat mGluR5
  EC50: < 1000 nM

## O=C(c1ccc(F)cc1)N1CCC[C@H](c2nc(-c3cscn3)no2)C1 [Example 50, (4-Fluoro-phenyl)-[(S)-3-(3-thiazol-4-yl-[1,2,4]oxadiazol-5-yl)-piperidin-1-yl]-methanone]
other
  melting point: 118 to 120 °C
Rat mGluR5
  EC50: 1000 to 10000 nM

## O=C(c1ccc(F)c(F)c1)N1CCC[C@H](c2nc(-c3cscn3)no2)C1 [Example 51, (3,4-Difluoro-phenyl)-[(S)-3-(3-thiazol-4-yl-[1,2,4]oxadiazol-5-yl)-piperidin-1-yl]-methanone]
other
  melting point: 107 to 109 °C
Rat mGluR5
  EC50: 1000 to 10000 nM

## O=C(c1ccc(F)c(F)c1)N1CCC[C@H](c2nc(-c3ccncc3)no2)C1 [Example 52, (3,4-Difluoro-phenyl)-[(S)-3-(3-pyridin-4-yl-[1,2,4]oxadiazol-5-yl)-piperidin-1-yl]-methanone]
other
  melting point: 102 to 106 °C
Rat mGluR5
  EC50: < 1000 nM

## O=C(c1ccc(F)c(F)c1)N1CCC[C@H](c2nc(-c3ccccn3)no2)C1 [Example 54, (3,4-Difluoro-phenyl)-[(S)-3-(3-pyridin-2-yl-[1,2,4]oxadiazol-5-yl)-piperidin-1-yl]-methanone]
other
  melting point: 135 to 137 °C
Rat mGluR5
  EC50: < 1000 nM

## O=C(c1ccc(F)cc1F)N1CCC[C@H](c2nc(-c3ccccn3)no2)C1 [Example 70, (2,4-Difluoro-phenyl)-[(S)-3-(3-pyridin-2-yl-[1,2,4]oxadiazol-5-yl)-piperidin-1-yl]-methanone]
Rat mGluR5
  EC50: 1000 to 10000 nM

## Cc1cc(F)ccc1C(=O)N1CCC[C@H](c2nc(-c3ccccc3F)no2)C1 [Example 71, (4-Fluoro-2-methyl-phenyl)-{(S)-3-[3-(2-fluoro-phenyl)-[1,2,4]oxadiazol-5-yl]-piperidin-1-yl}-methanone]
Rat mGluR5
  EC50: 1000 to 10000 nM

## Cc1ncc(-c2noc([C@H]3CCCN(C(=O)c4ccc(F)cc4)C3)n2)s1 [Example 72, (4-Fluoro-phenyl)-{(S)-3-[3-(2-methyl-thiazol-5-yl)-[1,2,4]oxadiazol-5-yl]-piperidin-1-yl}-methanone]
Rat mGluR5
  EC50: 1000 to 10000 nM

## Cc1ncc(-c2noc([C@H]3CCCN(C(=O)c4ccc(F)nc4)C3)n2)s1 [Example 73, (6-Fluoro-pyridin-3-yl)-{(S)-3-[3-(2-methyl-thiazol-5-yl)-[1,2,4]oxadiazol-5-yl]-piperidin-1-yl}-methanone]
Rat mGluR5
  EC50: > 10000 nM

## Cc1ncc(-c2noc([C@H]3CCCN(C(=O)c4ccc(F)cc4F)C3)n2)s1 [Example 74, (2,4-Difluoro-phenyl)-{(S)-3-[3-(2-methyl-thiazol-5-yl)-[1,2,4]oxadiazol-5-yl]-piperidin-1-yl}-methanone]
Rat mGluR5
  EC50: 1000 to 10000 nM

## Cc1ncc(-c2noc([C@H]3CCCN(C(=O)c4ccc(F)c(F)c4)C3)n2)s1 [Example 75, (3,4-Difluoro-phenyl)-{(S)-3-[3-(2-methyl-thiazol-5-yl)-[1,2,4]oxadiazol-5-yl]-piperidin-1-yl}-methanone]
Rat mGluR5
  EC50: 1000 to 10000 nM

## O=C(c1ccc(OC(F)(F)F)cc1)N1CCC[C@H](c2nc(-c3ccc(F)cc3)no2)C1 [Example 76, {(S)-3-[3-(4-Fluoro-phenyl)-[1,2,4]oxadiazol-5-yl]-piperidin-1-yl}-(4-trifluoromethoxy-phenyl)-methanone]
Rat mGluR5
  EC50: 1000 to 10000 nM
